Source: patent publication US20230133118A1, “COMPOSITIONS AND METHODS FOR TREATING CANCER” (Adagene AG, priority 2020, published 2023)

Test system: 3LL (JCRB) murine lung cancer cells
Assay: 3LL lung cancer model, ADG106 with atezolizumab
Assay type: in vivo, C57BL/6 mice
Conditions: 10 mg/kg i.p. twice a week for 3 weeks
From the text: C57BL/6 mice (n=10 per group, female, 6-8 weeks old) were inoculated subcutaneously with 3LL (JCRB) murine lung cancer cells, a Lewis lung cancer cell line.

ADG106: fully human agonistic anti-CD137 monoclonal IgG4 antibody; heavy chain SEQ ID NO: 10, light chain SEQ ID NO: 11
anti-tumor activity, monotherapy: showed anti-tumor activity
